According to paper PMC8509398, “Proteolytic Cleavage of Bioactive Peptides and Protease-Activated Receptors in Acute and Post-Colitis” (International Journal of Molecular Sciences, 2021):
Residues, ends and D or L forms follow the SMILES beside them.

Legend:
trypsin-1 = trypsin-1 (Homo sapiens, UniProt P07477); test: Cleavage of peptides by purified trypsin-1, MALDI-TOF/TOF; settings: 25 nM protease, 10 µM peptide; for Incubation time at which the first cleavage or decrease of the full-length peptide was observed, trypsin-1: 37 °C, time points 2, 5, 10, 30 min; for Efficiency of the first cleavage in the peptide, Trypsin-1: stopped with 2% TFA
Source text: (§1) Trypsin-like proteases included in the experiments are trypsin-1, -2 and -3, tryptase (Enzo LifeSciences), thrombin (Sigma-Aldrich) and cathepsin G (Sigma-Aldrich). Trypsin-1, -2 and -3 were produced as described by Koistinen et al. and Wu et al.. Two elastase-like enzymes, neutrophil elastase (Enzo LifeSciences, Farmingdale, NY, USA) and pancreatic elastase I (Sigma-Aldrich) were included as well. All enzymes were from human origin except for pancreatic elastase from porcine pancreas.
(§2) Reaction mixtures with purified enzymes were compiled in an identical way. Each mixture contained an equimolar concentration of protease (25 nM based on) and 10 µM peptide of interest and was incubated for 2, 5, 10 and 30 min at 37 °C. Substance P was added as the standard peptide except for the reaction mixtures with substance P or bradykinin as the peptide of interest, where angiotensin II (Bachem) was added.
(§3) The TFA mixtures were thawed on ice and desalted using C18 zip-tips (Merck Millipore®, Burlington, MA, USA) with a capacity of 5 µg protein. Retained peptide fragments were eluted directly on the MALDI target plate. Next, 0.5 µL of a 2.5 mg/mL α-cyano-4-hydroxycinnamic acid (Sigma-Aldrich) matrix solution (in 70% acetonitrile, 0.1% TFA) was spotted on top of the sample. A 6-Peptide mixture Kit (AB Sciex, Framingham, MA, USA) containing bradykinin (2–9), angiotensin I, glu1-fibrinopeptide, ACTH (1–17), ACTH (18–39) and ACTH (7–38) was diluted with matrix and spotted on the plate as well.
(§4) MS and MS/MS data for peptide fragment identification were obtained with a MALDI-TOF/TOF instrument (4800 MALDI TOF/TOF™, Applied Biosystems, Waltham, MA, USA) and instrument parameters were set using 4000 Series Explorer™ software. MS spectra were recorded in positive reflector mode in a mass range from 500 to 4000 Da and laser intensity of 4500–4800 Hz. The spectra were calibrated using the calibration mixture mentioned above to a mass tolerance of 0.1 Da. MS/MS spectra were recorded with high-energy collision-induced dissociation and the laser intensity was increased by 10%. Precursor mass m/z 1570.65 (Glu1-Fibrinopeptide from the calibration mixture) was used to calibrate the MS/MS spectra to a mass tolerance of 0.1 Da.
(§5) MS and MS/MS spectra were processed using DataExplorer™ software and the obtained output files were uploaded in the MS-PEP data analyzer (https://bioit.shinyapps.io/PARs/ accessed 10/08/2020) for peptide fragment identification. Identified fragments were confirmed using the MS/MS spectra and mMass 5.5.0 by Martin Strohalm. The relative intensities of the fragments were calculated as the ratio of the intensity of the peak of interest to the intensity of the peak of the standard peptide.

trypsin-3 = molecular target: T1, trypsin-3 (Homo sapiens, UniProt P35030); test: Cleavage of peptides by purified trypsin-3, MALDI-TOF/TOF; settings: 25 nM protease, 10 µM peptide; for Incubation time at which the first cleavage or decrease of the full-length peptide was observed, trypsin-3: 37 °C, time points 2, 5, 10, 30 min; for Efficiency of the first cleavage in the peptide, Trypsin-3: stopped with 2% TFA
T1 sequence (P35030 1-304): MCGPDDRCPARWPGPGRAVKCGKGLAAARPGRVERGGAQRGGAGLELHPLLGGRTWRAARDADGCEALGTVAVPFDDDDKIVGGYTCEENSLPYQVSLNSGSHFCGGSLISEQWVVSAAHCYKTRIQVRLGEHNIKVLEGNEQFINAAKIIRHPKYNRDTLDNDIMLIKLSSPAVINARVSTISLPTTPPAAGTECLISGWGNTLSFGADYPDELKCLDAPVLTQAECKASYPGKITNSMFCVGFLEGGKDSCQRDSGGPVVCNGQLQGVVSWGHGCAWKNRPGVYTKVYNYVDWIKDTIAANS
Source text: as §1, §2, §3, §4, §5

thrombin = thrombin (Homo sapiens, UniProt P00734); test: Cleavage of peptides by purified thrombin, MALDI-TOF/TOF; settings: 25 nM protease, 10 µM peptide; for Incubation time at which the first cleavage or decrease of the full-length peptide was observed, thrombin: 37 °C, time points 2, 5, 10, 30 min; for Efficiency of the first cleavage in the peptide, Thrombin: stopped with 2% TFA
Source text: as §1, §2, §3, §4, §5

[1] = Cleavage of peptides by colonic tissue lysates from TNBS-induced colitis rat model, MALDI-TOF/TOF; settings: 10 µM peptide, 20 µg/mL protein, 37 °C; for Processing by colonic samples, in words (comparison of control, post-colitis and acute colitis): rat colonic lysates, up to 30 min, n = 8 per group
Procedure: Adult male Sprague–Dawley rats (200–225 g; Charles River, Wilmington, MA, USA) were used in a previously described TNBS-induced acute and post-inflammatory model. Rats were housed at constant room temperature (22 ± 2 °C) and humidity (60%) with two rats per cage, unlimited access to water and food and on a 12 h–12 h light/dark cycle.
After an overnight fast, TNBS colitis was induced using a TNBS-enema (4 mg TNBS; Sigma-Aldrich, 50% ethanol) as described previously. Rats were anesthetized with a mixture of ketamine (35 mg/kg i.p.; Ketalar®, Pfizer, New York City, NY, USA) and xylazine (5 mg/kg i.p.; Rompun®, Bayer, Leverkusen, Germany), and the TNBS-enema or 0.9% saline was administered intrarectally using a flexible catheter (18 G, length 4.5 cm) to colitis and control rats, respectively. Animals were kept in a tail-up position for 1 min and were then allowed to recover in their cages with free access to water and food. […] For the post-colitis group (n = 8), a colonoscopy was performed starting from day 10 and repeated every 4 days until complete mucosal healing was observed. The rats were then sacrificed as well and colonic samples were taken.
Colonic lysates were prepared for studying their effects on cleavage patterns of added peptides with a MALDI-TOF/TOF assay. After sacrifice, a sample of approximately 50 mg of distal colon was taken from each rat. The colonic samples were immediately rinsed with Krebs solution, snap-frozen and stored at −80 °C until further processing. Sample preparation started with crushing the colonic samples on dry ice. Liquid nitrogen was used to prevent the loss of enzymatic activity due to temperature increases and the colon powders were stored at −80 °C for further experiments. […] After centrifugation, the supernatants were collected and used immediately to prepare the reaction mixtures, measure proteolytic activities with fluorogenic substrates and determine the protein content with a Bradford assay.
Colonic lysate was added to a peptide of interest to obtain the reaction mixtures with the colonic samples. Lysate and peptide were diluted so each mixture contained 10 µM peptide of interest and 20 µg/mL protein originating from the colonic tissue. These peptide and protein concentrations were based on research from Loew et al. and O’ Donoghue et al.. The mixtures were incubated at 37 °C for several incubation periods between 5 and 30 min. Afterward, the fragmentation reaction was stopped by adding trifluoroacetic acid (TFA; Alfa Aesar™, ThermoFisher, Waltham, MA, USA) to a final concentration of 2% and standard peptide (substance P, bradykinin or PAR3-based peptide) was added in a final concentration of 10 µM. Standard peptides were selected based on the mass of the peptides of interest. For each sample/peptide combination, a starting point was included as well. Here, TFA was added immediately after mixing the reaction constituents. Samples were stored at −80 °C for further MALDI-TOF/TOF experiments.
as §3
MS and MS/MS data for peptide fragment identification were obtained with a MALDI-TOF/TOF instrument (4800 MALDI TOF/TOF™, Applied Biosystems, Waltham, MA, USA) and instrument parameters were set using 4000 Series Explorer™ software. MS spectra were recorded in positive reflector mode in a mass range from 500 to 4000 Da and laser intensity of 4500–4800 Hz.

[2] = PAR-based peptides, 37 °C, 2, 5, 10 and 30 min

| Structure (SMILES) | Incubation time at which the first cleavage or decrease of the full-length peptide was observed, trypsin-1 (trypsin-1) [min] | TL disarming (D), Trypsin-1 (trypsin-1; [2]) | TL unmasking (U), Trypsin-1 (trypsin-1; [2]) | Incubation time at which the first cleavage or decrease of the full-length peptide was observed, trypsin-3 (trypsin-3) [min] | TL disarming (D), Trypsin-3 (trypsin-3; [2]) | TL unmasking (U), Trypsin-3 (trypsin-3; [2]) | Incubation time at which the first cleavage or decrease of the full-length peptide was observed, thrombin (thrombin) [min] | TL disarming (D), Thrombin (thrombin; [2]) | TL unmasking (U), Thrombin (thrombin; [2]) | Number of colonic samples in which the TL-sequence unmasking cleavage was observed, acute colitis ([1]; acute colitis lysates, n = 8, MALDI-TOF/TOF, PAR1-based after 30 min) | Number of colonic samples in which the TL-sequence unmasking cleavage was observed, post-colitis ([1]; post-colitis lysates, n = 8, MALDI-TOF/TOF, PAR1-based after 30 min) | Incubation time after which processing was significant (decrease of full-length peptide or increase of fragment), post-colitis samples ([1]; rat colonic lysate, post-colitis, 5-30 min, stopped with 2% TFA, MALDI-TOF/TOF relative intensity vs standard peptide, n = 8 animals) | Efficiency of the first cleavage in the peptide, Trypsin-1 (trypsin-1; 37 °C, 2, 5, 10 and 30 min) | Efficiency of the first cleavage in the peptide, Trypsin-3 (trypsin-3; 37 °C, 2, 5, 10 and 30 min) | Efficiency of the first cleavage in the peptide, Thrombin (thrombin; 37 °C, 2, 5, 10 and 30 min) | Processing by colonic samples, in words (comparison of control, post-colitis and acute colitis) ([1]; MALDI-TOF/TOF) |
| --- | --- | --- | --- | --- | --- | --- | --- | --- | --- | --- | --- | --- | --- | --- | --- | --- |
| CC[C@H](C)[C@H](NC(=O)[C@H](CO)NC(=O)[C@@H]1CCCN1C(=O)[C@@H](NC(=O)[C@H](CO)NC(=O)[C@H](CC(=O)O)NC(=O)[C@H](CC(=O)O)NC(=O)CNC(=O)CNC(=O)CNC(=O)[C@@H](NC(=O)[C@H](CO)NC(=O)CNC(=O)[C@H](CO)NC(=O)[C@H](CCC(=O)O)NC(=O)[C@H](CC(=O)O)NC(=O)[C@H](Cc1ccc(O)cc1)NC(=O)[C@@H](NC(=O)[C@H](CO)NC(=O)[C@@H]1CCCN1C(=O)[C@@H](NC(=O)[C@H](CCC(N)=O)NC(=O)[C@@H](NC(=O)CNC(=O)CN)[C@@H](C)O)[C@@H](C)O)C(C)C)[C@@H](C)O)[C@@H](C)O)C(=O)N[C@@H](CC(C)C)C(=O)N1CCC[C@H]1C(=O)N[C@@H](C)C(=O)N1CCC[C@H]1C(=O)N[C@@H](CCCNC(=N)N)C(=O)NCC(=O)N[C@@H](Cc1ccc(O)cc1)C(=O)N1CCC[C@H]1C(=O)NCC(=O)N[C@@H](CCC(N)=O)C(=O)N[C@H](C(=O)N[C@@H](CS)C(=O)N[C@@H](C)C(=O)N[C@@H](CC(N)=O)C(=O)N[C@@H](CC(=O)O)C(N)=O)C(C)C [PAR4-based] (H-GGTQTPSVYDESGSTGGGDDSTPSILPAPRGYPGQVCAND-NH2) | 2 | − | +++ (ultrafast processing within 2 min) | 2 | − | +++ (ultrafast processing within 2 min) | 2 | − | +++ (ultrafast processing within 2 min) | five out of eight | two out of eight | not in post-colitis samples |  |  |  |  |
| CC[C@H](C)[C@H](NC(=O)[C@H](CO)NC(=O)[C@H](CC(N)=O)NC(=O)[C@H](CC(C)C)NC(=O)[C@H](Cc1ccc(O)cc1)NC(=O)[C@H](CCCCN)NC(=O)[C@H](CCCCN)NC(=O)[C@@H](NC(=O)[C@H](C)NC(=O)[C@H](CCSC)NC(=O)[C@H](CCC(N)=O)NC(=O)[C@H](CCCCN)NC(=O)[C@H](CCCN=C(N)N)NC(=O)[C@H](CC(C)C)NC(=O)[C@H](CCCN=C(N)N)NC(=O)[C@@H](NC(=O)[C@H](Cc1ccc(O)cc1)NC(=O)[C@H](CC(N)=O)NC(=O)[C@H](CC(=O)O)NC(=O)[C@@H](NC(=O)[C@H](Cc1ccccc1)NC(=O)[C@@H](NC(=O)[C@H](C)NC(=O)[C@H](CC(=O)O)NC(=O)[C@H](CO)NC(=O)[C@@H](N)Cc1c[nH]cn1)C(C)C)[C@@H](C)O)[C@@H](C)O)C(C)C)C(=O)N[C@@H](CC(C)C)C(=O)N[C@@H](CC(N)=O)C(N)=O [VIP, Vasoactive intestinal peptide] | 2 |  |  | 2 |  |  | > 30 |  |  |  |  |  | +++ (ultrafast processing within 2 min) | +++ (ultrafast processing within 2 min) | − | no differences |
| CC[C@H](C)[C@H](NC(=O)[C@H](C)NC(=O)[C@H](CC(N)=O)NC(=O)[C@H](CCCCN)NC(=O)[C@H](Cc1ccccc1)NC(=O)[C@H](CC(C)C)NC(=O)[C@@H](NC(=O)[C@@H](NC(=O)[C@H](CC(C)C)NC(=O)[C@@H]1CCCN1C(=O)[C@@H](NC(=O)[C@H](CCC(N)=O)NC(=O)[C@H](CO)NC(=O)[C@H](CCCCN)NC(=O)[C@H](CCC(=O)O)NC(=O)[C@H](CO)NC(=O)[C@@H](NC(=O)[C@H](CCSC)NC(=O)[C@H](Cc1ccccc1)NC(=O)CNC(=O)CNC(=O)[C@@H](N)Cc1ccc(O)cc1)[C@@H](C)O)[C@@H](C)O)C(C)C)[C@@H](C)O)C(=O)N[C@H](C(=O)N[C@@H](CCCCN)C(=O)N[C@@H](CC(N)=O)C(=O)N[C@@H](C)C(=O)N[C@@H](Cc1ccc(O)cc1)C(=O)N[C@@H](CCCCN)C(=O)N[C@@H](CCCCN)C(=O)NCC(=O)N[C@@H](CCC(=O)O)C(=O)O)[C@@H](C)CC [β-endorphin] | 2 |  |  | > 30 |  |  | > 30 |  |  |  |  |  | +++ (ultrafast processing within 2 min) | − | − | cleaved more intensively by proteases in acute colitis samples |
